In PubChem BioAssay (NCI):
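Method: 48-hour compound exposure of cells in 96-well plates, five concentrations, linear interpolation of endpoints. GI50 = concentration required for 50% inhibition of growth. TGI denotes the concentration required for complete inhibition of growth.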

Key:
Experiment in all cases: NCI tumour cell line growth inhibition, 48 h
[1] = test system: 786-0 renal
[2] = test system: A498 renal
[3] = test system: A549 NSCLC
[4] = test system: ACHN renal
[5] = test system: BT-549 breast
[6] = test system: CAKI-1 renal
[7] = test system: CCRF-CEM leukemia
[8] = test system: COLO 205 colon
[9] = test system: DU-145 prostate
[10] = test system: EKVX NSCLC
[11] = test system: HCC-2998 colon
[12] = test system: HCT-116 colon
[13] = test system: HCT-15 colon
[14] = test system: HL-60(TB) leukemia
[15] = test system: HOP-62 NSCLC
[16] = test system: HS 578T breast
[17] = test system: HT29 colon
[18] = test system: IGROV1 ovarian
[19] = test system: K-562 leukemia
[20] = test system: KM12 colon
[21] = test system: LOX IMVI melanoma
[22] = test system: M14 melanoma
[23] = test system: MCF7 breast
[24] = test system: MDA-MB-231 breast
[25] = test system: MDA-MB-435
[26] = test system: MOLT-4 leukemia
[27] = test system: NCI-H226 lung
[28] = test system: NCI-H23 lung
[29] = test system: NCI-H460 lung
[30] = test system: NCI-H522 lung
[31] = test system: NCI/ADR-RES ovarian
[32] = test system: OVCAR-3 ovarian
[33] = test system: OVCAR-4 ovarian
[34] = test system: OVCAR-5 ovarian
[35] = test system: OVCAR-8 ovarian
[36] = test system: PC-3 prostate
[37] = test system: RPMI-8226 leukemia
[38] = test system: RXF 393 renal
[39] = test system: SF-268 CNS
[40] = test system: SF-295 CNS
[41] = test system: SF-539 CNS
[42] = test system: SK-MEL-2 melanoma
[43] = test system: SK-MEL-28 melanoma
[44] = test system: SK-MEL-5 melanoma
[45] = test system: SK-OV-3 ovarian
[46] = test system: SN12C renal
[47] = test system: SNB-19 CNS
[48] = test system: SNB-75 CNS
[49] = test system: SR leukemia
[50] = test system: SW-620 colon
[51] = test system: T-47D breast
[52] = test system: TK-10 renal
[53] = test system: U251 CNS
[54] = test system: UACC-257 melanoma
[55] = test system: UACC-62 melanoma
[56] = test system: UO-31 renal

SMILES: CCS(=O)(=O)c1ccc(OC)c(Nc2ncc(-c3cccc(C(C)=O)c3)o2)c1
- GI50 [1]: > 25 µM
- TGI [1]: > 25 µM
- GI50 [2]: 0.6 µM
- TGI [2]: 5.88 µM
- GI50 [3]: > 25 µM
- TGI [3]: > 25 µM
- GI50 [4]: 11.4 µM
- TGI [4]: > 25 µM
- GI50 [5]: 20.4 µM
- TGI [5]: > 25 µM
- GI50 [6]: 8.71 µM
- TGI [6]: > 25 µM
- GI50 [7]: > 25 µM
- TGI [7]: > 25 µM
- GI50 [8]: > 25 µM
- TGI [8]: > 25 µM
- GI50 [9]: > 25 µM
- TGI [9]: > 25 µM
- GI50 [10]: > 25 µM
- TGI [10]: > 25 µM
- GI50 [11]: > 25 µM
- TGI [11]: > 25 µM
- GI50 [12]: 11.4 µM
- TGI [12]: > 25 µM
- GI50 [13]: > 25 µM
- TGI [13]: > 25 µM
- GI50 [14]: > 25 µM
- TGI [14]: > 25 µM
- GI50 [15]: > 25 µM
- TGI [15]: > 25 µM
- GI50 [16]: 5.88 µM
- TGI [16]: > 25 µM
- GI50 [17]: > 25 µM
- TGI [17]: > 25 µM
- GI50 [18]: 5.47 µM
- TGI [18]: 16.1 µM
- GI50 [19]: 7.56 µM
- TGI [19]: > 25 µM
- GI50 [20]: 2.1 µM
- TGI [20]: > 25 µM
- GI50 [21]: 10.4 µM
- TGI [21]: > 25 µM
- GI50 [22]: > 25 µM
- TGI [22]: > 25 µM
- GI50 [23]: > 25 µM
- TGI [23]: > 25 µM
- GI50 [24]: 7.73 µM
- TGI [24]: > 25 µM
- GI50 [25]: > 25 µM
- TGI [25]: > 25 µM
- GI50 [26]: > 25 µM
- TGI [26]: > 25 µM
- GI50 [27]: 2.69 µM
- TGI [27]: > 25 µM
- GI50 [28]: > 25 µM
- TGI [28]: > 25 µM
- GI50 [29]: > 25 µM
- TGI [29]: > 25 µM
- GI50 [30]: 11 µM
- TGI [30]: > 25 µM
- GI50 [31]: > 25 µM
- TGI [31]: > 25 µM
- GI50 [32]: > 25 µM
- TGI [32]: > 25 µM
- GI50 [33]: > 25 µM
- TGI [33]: > 25 µM
- GI50 [34]: > 25 µM
- TGI [34]: > 25 µM
- GI50 [35]: > 25 µM
- TGI [35]: > 25 µM
- GI50 [36]: > 25 µM
- TGI [36]: > 25 µM
- GI50 [37]: > 25 µM
- TGI [37]: > 25 µM
- GI50 [38]: 3.21 µM
- TGI [38]: 16.6 µM
- GI50 [39]: 17.9 µM
- TGI [39]: > 25 µM
- GI50 [40]: 23.1 µM
- TGI [40]: > 25 µM
- GI50 [41]: 8.69 µM
- TGI [41]: > 25 µM
- GI50 [42]: > 25 µM
- TGI [42]: > 25 µM
- GI50 [43]: > 25 µM
- TGI [43]: > 25 µM
- GI50 [44]: > 25 µM
- TGI [44]: > 25 µM
- GI50 [45]: 21.5 µM
- TGI [45]: > 25 µM
- GI50 [46]: 14 µM
- TGI [46]: > 25 µM
- GI50 [47]: 19.9 µM
- TGI [47]: > 25 µM
- GI50 [48]: 2.73 µM
- TGI [48]: 23 µM
- GI50 [49]: 15.6 µM
- TGI [49]: > 25 µM
- GI50 [50]: > 25 µM
- TGI [50]: > 25 µM
- GI50 [51]: 16.7 µM
- TGI [51]: > 25 µM
- GI50 [52]: > 25 µM
- TGI [52]: > 25 µM
- GI50 [53]: 19.7 µM
- TGI [53]: > 25 µM
- GI50 [54]: > 25 µM
- TGI [54]: > 25 µM
- GI50 [55]: > 25 µM
- TGI [55]: > 25 µM
- GI50 [56]: 5.86 µM
- TGI [56]: > 25 µM
